Data as given in paper PMC6600263, “Neuroprotective Effects of Red Ginseng Saponins in Scopolamine-Treated Rats and Activity Screening Based on Pharmacokinetics” (Molecules, 2019).
Where two headings read alike, the source gives them in different places.

Columns and labels:
[1] = pharmacokinetics of 16 ginsenosides in rat plasma after oral administration of RGS; format: in vivo; settings: for Cmax / MRT / half-life / Tmax / C Max / T1/2 / T Max: SD, rat, po, 100 mg/kg
Procedure: The SD rats were randomly allocated into two groups, i.e., normal group and SA-treated group.
Blood samples were collected from the postocular vein at 0.083, 0.25, 0.5, 1, 2, 3, 4, 6, 8, 12 and 24 h after SA injection. Blood sample immediately was centrifuged at 18,000 rpm for 10 min. Plasma was withdrawn (0.15 mL) and diluted with 0.3 mL of acetonitrile and 20 µL of the IS (6 µg/mL). After 30 min, the mixture was clarified by centrifugation at 18,000 rpm for 10 min at 4 °C. The supernatant was dried under a stream of N2, and the residue was dissolved in 0.1 mL of methanol and stored at −20 °C for further analysis.
The UPLC-MS/MS system (Waters Xeve TQ, Waters, Cork, Ireland) with a column C18 (ACQUITY, 1.7 μm, 2.1 × 50 mm, Waters, Cork, Ireland) were adopted at 35 °C. Water (A) and acetonitrile (B) were used as mobile phases at a flow rate of 0.4 mL/min. The treatment of elution was performed according to following pattern: 10% B for 0–5.0 min; 10→15% B for 5.0–8.0 min; 15→25% B for 8.0–12.0 min; 25→40% for 12.0–20.0 min; 40→50% B for 20.0–25.0 min; 50→65% B for 25.0–30.0 min. With regard to mass detection, the negative mode of electrospray ionization source was adopted. The optimized parameters of multiple reactions monitoring (MRM) system including collision energy, Q1 Pre Bias, Q3 Pre Bias, collision energy and MRM transition of the 16 ginsenosides are shown in Table 1.
Based on a non-compartmental method, WinNonlin software (Phoenix, version 6.1) was employed to calculate the pharmacokinetic parameters. The statistical difference between groups was analyzed by One-Way ANOVA analysis using SPSS Version 17.0. (SPSS Inc., Chicago, IL, USA). The difference between groups was regarded significant when p < 0.05. We first normalized the pharmacokinetic data and then visualized them based on principal component analysis (PCA).

[2] = test system: scopolamine-induced learning ability impairment; set-up: method as in PMID 24503167; settings: rats; cited from earlier work
[3] = plasma, model (scopolamine 1 mg/kg i.p.-treated) rats, oral RGS single dose 100 mg/kg, plasma, mean ± S.D., n = 5, read-out: C Max
[4] = plasma, model (scopolamine 1 mg/kg i.p.-treated) rats, oral RGS single dose 100 mg/kg, plasma, mean ± S.D., n = 5, read-out: MRT
[5] = plasma, model (scopolamine 1 mg/kg i.p.-treated) rats, oral RGS single dose 100 mg/kg, plasma, mean ± S.D., n = 5, read-out: T1/2 (converted)
[6] = plasma, model (scopolamine 1 mg/kg i.p.-treated) rats, oral RGS single dose 100 mg/kg, plasma, mean ± S.D., n = 5, read-out: T Max
[7] = plasma, normal rats, oral RGS single dose 100 mg/kg, plasma, mean ± S.D., n = 5, read-out: C Max
[8] = plasma, normal rats, oral RGS single dose 100 mg/kg, plasma, mean ± S.D., n = 5, read-out: MRT
[9] = plasma, normal rats, oral RGS single dose 100 mg/kg, plasma, mean ± S.D., n = 5, read-out: T1/2 (converted)
[10] = plasma, normal rats, oral RGS single dose 100 mg/kg, plasma, mean ± S.D., n = 5, read-out: T Max
[11] = model (scopolamine 1 mg/kg i.p.-treated) rats, oral RGS single dose 100 mg/kg, plasma, mean ± S.D., n = 5
[12] = normal rats, oral RGS single dose 100 mg/kg, plasma, mean ± S.D., n = 5
[13] = in vivo, model (scopolamine 1 mg/kg i.p.-treated) rats, oral RGS single dose 100 mg/kg, plasma, mean ± S.D., n = 5, read-out: C Max
[14] = in vivo, model (scopolamine 1 mg/kg i.p.-treated) rats, oral RGS single dose 100 mg/kg, plasma, mean ± S.D., n = 5, read-out: MRT
[15] = in vivo, model (scopolamine 1 mg/kg i.p.-treated) rats, oral RGS single dose 100 mg/kg, plasma, mean ± S.D., n = 5, read-out: T1/2 (converted)
[16] = in vivo, model (scopolamine 1 mg/kg i.p.-treated) rats, oral RGS single dose 100 mg/kg, plasma, mean ± S.D., n = 5, read-out: T Max
[17] = in vivo, normal rats, oral RGS single dose 100 mg/kg, plasma, mean ± S.D., n = 5, read-out: C Max
[18] = in vivo, normal rats, oral RGS single dose 100 mg/kg, plasma, mean ± S.D., n = 5, read-out: MRT
[19] = in vivo, normal rats, oral RGS single dose 100 mg/kg, plasma, mean ± S.D., n = 5, read-out: T1/2 (converted)
[20] = in vivo, normal rats, oral RGS single dose 100 mg/kg, plasma, mean ± S.D., n = 5, read-out: T Max

| Structure (SMILES) | Cmax [1, 3] [ng/g] | MRT [1, 4] [h] | half-life [1, 5] [h] | Tmax [1, 6] [h] | Cmax [1, 7] [ng/g] | MRT [1, 8] [h] | half-life [1, 9] [h] | Tmax [1, 10] [h] | AUC 0-t [1, 11] [ng·h/g] | AUC 0-t [1, 12] [ng·h/g] | C Max ([1]; in vivo) [ng/g] | MRT ([1]; in vivo) [h] | T1/2 ([1]; in vivo) [h] | Cmax ([1]; in vivo, C Max) [ng/g] | MRT ([1]; in vivo, MRT) [h] | half-life ([1]; in vivo, T1/2) [h] | other results |
| --- | --- | --- | --- | --- | --- | --- | --- | --- | --- | --- | --- | --- | --- | --- | --- | --- | --- |
| CC(C)=CCCC(C)(OC1OC(COC2OC(CO)C(O)C(O)C2O)C(O)C(O)C1O)C1CCC2(C)C1C(O)CC1C3(C)CCC(OC4OC(CO)C(O)C(O)C4OC4OC(CO)C(O)C(O)C4O)C(C)(C)C3CCC12C (centres unmarked) [Rb1] | 34.8 ± 2.7 | 6.5 ± 1.5 | 4.8 ± 1.1 | 4.1 ± 0.8 | 35.2 ± 4.9 | 6.2 ± 1.8 | 4.3 ± 0.8 | 4.6 ± 1.1 | 298.9 ± 11.7 | 255.6 ± 7.4 |  |  |  |  |  |  | effect on scopolamine-induced learning ability impairment [2]: do not |
| CC(C)=CCCC(C)(OC1OC(COC2OCC(O)C(O)C2O)C(O)C(O)C1O)C1CCC2(C)C1C(O)CC1C3(C)CCC(OC4OC(CO)C(O)C(O)C4OC4OC(CO)C(O)C(O)C4O)C(C)(C)C3CCC12C (centres unmarked) [Rb2] | 17.2 ± 2.1 | 7.9 ± 1.2 | 6.9 ± 1.2 | 1.5 ± 0.2 | 18.5 ± 2.5 | 8.6 ± 2.1 | 6.5 ± 1.5 | 1.5 ± 0.2 | 90.3 ± 8.2 | 89.6 ± 9.3 |  |  |  |  |  |  |  |
| CC(C)=CCCC(C)(OC1OC(COC2OC(CO)C(O)C2O)C(O)C(O)C1O)C1CCC2(C)C1C(O)CC1C3(C)CCC(OC4OC(CO)C(O)C(O)C4OC4OC(CO)C(O)C(O)C4O)C(C)(C)C3CCC12C (centres unmarked) [Rc] | 21 ± 4.8 | 8.9 ± 2.2 | 7.9 ± 3.1 | 1.5 ± 0.5 | 19.1 ± 2.9 | 9.6 ± 1.5 | 8.9 ± 3.2 | 1.5 ± 3.2 | 109.8 ± 10.2 | 102.3 ± 20.2 |  |  |  |  |  |  |  |
| CC(C)=CCCC(C)(OC1OC(CO)C(O)C(O)C1O)C1CCC2(C)C1C(O)CC1C3(C)CCC(OC4OC(CO)C(O)C(O)C4OC4OC(CO)C(O)C(O)C4O)C(C)(C)C3CCC12C (centres unmarked) [Rd] | 45.6 ± 2.9 | 7.7 ± 1.3 | 6.2 ± 1.9 | 2 ± 0.8 | 47.5 ± 2.6 | 8.6 ± 1.2 | 5.5 ± 5.6 | 1.5 ± 0.4 | 331.2 ± 11.2 | 321.5 ± 9.1 |  |  |  |  |  |  | effect on scopolamine-induced learning ability impairment [2]: do not |
| CC(C)=CCCC(C)(OC1OC(CO)C(O)C(O)C1O)C1CCC2(C)C1C(O)CC1C3(C)CCC(O)C(C)(C)C3C(OC3OC(CO)C(O)C(O)C3OC3OC(C)C(O)C(O)C3O)CC12C (centres unmarked) [Re] | 24.9 ± 6.9 | 8.6 ± 1.1 | 11.3 ± 2.9 | 0.5 ± 0.1 | 25.6 ± 2.6 | 9.6 ± 1.2 | 12.3 ± 2.6 | 0.5 ± 0.4 | 298.6 ± 21.2 | 278.3 ± 9.1 |  |  |  |  |  |  |  |
| CC(C)=CCCC(C)(O)C1CCC2(C)C1C(O)CC1C3(C)CCC(O)C(C)(C)C3C(OC3OC(CO)C(O)C(O)C3OC3OC(CO)C(O)C(O)C3O)CC12C (centres unmarked) [Rf] |  |  |  |  |  |  |  |  |  |  | 18.8 ± 2.6 | 7.4 ± 1.3 | 7.5 ± 1.5 | 17.6 ± 5.9 | 6.5 ± 1.2 | 6.6 ± 1.2 | Tmax ([1]; in vivo, T Max): 2 ± 0.6 h |
| CC(C)=CCCC(C)(O)C1CCC2(C)C1C(O)CC1C3(C)CCC(OC4OC(CO)C(O)C(O)C4OC4OC(CO)C(O)C(O)C4O)C(C)(C)C3CCC12C (centres unmarked) [Rg3] |  |  |  |  |  |  |  |  |  |  | 32.3 ± 4.6 | 22.5 ± 2.1 | 19.8 ± 1.5 | 29.6 ± 5.9 | 24.3 ± 1.2 | 21.3 ± 2.2 |  |
| CC(C)=CCC=C(C)C1CCC2(C)C1C(O)CC1C3(C)CCC(OC4OC(CO)C(O)C(O)C4OC4OC(CO)C(O)C(O)C4O)C(C)(C)C3CCC12C (centres unmarked) [Rg5] | 37.3 ± 2.8 | 25.6 ± 2.6 | 27.3 ± 3.6 | 8 ± 1.6 | 34.4 ± 2.6 | 22.2 ± 1.4 | 17.1 ± 2.5 | 4 ± 1.8 | 569.8 ± 10.2 | 415.6 ± 20.1 |  |  |  |  |  |  |  |
| CC(C)=CCCC(C)(O)C1CCC2(C)C1C(O)CC1C3(C)CCC(O)C(C)(C)C3C(OC3OC(CO)C(O)C(O)C3O)CC12C (centres unmarked) [Rh1] |  |  |  |  |  |  |  |  | 278.6 ± 12.8 | 215.5 ± 12.1 |  |  |  |  |  |  | Cmax [1, 13]: 46.9 ± 7.8 ng/g; MRT [1, 14]: 11.2 ± 2 h; half-life [1, 15]: 8.9 ± 2.1 h; Tmax [1, 16]: 1.5 ± 0.3 h; Cmax [1, 17]: 41.2 ± 4.6 ng/g; MRT [1, 18]: 9.6 ± 2.1 h; half-life [1, 19]: 9.8 ± 2.5 h; Tmax [1, 20]: 1 ± 0.5 h |
| CC(C)=CCCC(C)(O)C1CCC2(C)C1C(O)CC1C3(C)CCC(OC4OC(CO)C(O)C(O)C4O)C(C)(C)C3CCC12C (centres unmarked) [Rh2] |  |  |  |  |  |  |  |  | 369.8 ± 8.0 | 356.8 ± 12.8 |  |  |  |  |  |  | Cmax [1, 13]: 30.2 ± 4.8 ng/g; MRT [1, 14]: 11.8 ± 2 h; half-life [1, 15]: 7.6 ± 2.1 h; Tmax [1, 16]: 2 ± 0.3 h; Cmax [1, 17]: 26.9 ± 2.6 ng/g; MRT [1, 18]: 12.3 ± 2.1 h; half-life [1, 19]: 9.8 ± 2.5 h; Tmax [1, 20]: 2 ± 0.5 h |
| CC(C)=CCC=C(C)C1CCC2(C)C1C(O)CC1C3(C)CCC(OC4OC(CO)C(O)C(O)C4O)C(C)(C)C3CCC12C (centres unmarked) [Rh3] |  |  |  |  |  |  |  |  |  |  | 37.6 ± 4.8 | 19.8 ± 2.8 | 13.6 ± 3.1 | 24.3 ± 3.9 | 15.6 ± 3.5 | 12.6 ± 3.2 | T Max ([1]; in vivo): 10.2 ± 1.5 h; Tmax ([1]; in vivo, T Max): 14.4 ± 1.2 h |
| CC(C)=CCC=C(C)C1CCC2(C)C1C(O)CC1C3(C)CCC(O)C(C)(C)C3C(OC3OC(CO)C(O)C(O)C3O)CC12C (centres unmarked) [Rh4] |  |  |  |  |  |  |  |  |  |  | 38.7 ± 4.8 | 12.3 ± 2.0 | 9.9 ± 2.1 | 35.6 ± 3.6 | 11.2 ± 2.1 | 8.8 ± 1.5 | Tmax ([1]; in vivo, T Max): 4 ± 0.5 h |
| C=C(CCC=C(C)C)C1CCC2(C)C1C(O)CC1C3(C)CCC(OC4OC(CO)C(O)C(O)C4OC4OC(CO)C(O)C(O)C4O)C(C)(C)C3CCC12C (centres unmarked) [Rk1] | 50.1 ± 3.7 | 26.8 ± 2.5 | 29.3 ± 2.1 | 6 ± 0.8 | 32.1 ± 5.9 | 21.3 ± 1.8 | 18.1 ± 9.8 | 6 ± 0.9 | 736.8 ± 17.7 | 556.8 ± 13.4 |  |  |  |  |  |  |  |
| C=C(CCC=C(C)C)C1CCC2(C)C1C(O)CC1C3(C)CCC(O)C(C)(C)C3C(OC3OC(CO)C(O)C(O)C3O)CC12C (centres unmarked) [Rk3] |  |  |  |  |  |  |  |  |  |  | 16.6 ± 2.8 | 8.9 ± 1.8 | 6.9 ± 2.1 | 14.2 ± 3.9 | 9.6 ± 1.5 | 6.5 ± 0.9 | T Max ([1]; in vivo): 1.5 ± 0.5 h; Tmax ([1]; in vivo, T Max): 1 ± 0.2 h |
